T1: syntrophin PDZ domain (Mus musculus, UniProt Q61234)
T1 construct: syn PDZ1; made in house; host or cells: E. coli BL-21 Rosetta (DE3)pLysS, pMAL-c5X vector
T1 sequence (Q61234 77-171): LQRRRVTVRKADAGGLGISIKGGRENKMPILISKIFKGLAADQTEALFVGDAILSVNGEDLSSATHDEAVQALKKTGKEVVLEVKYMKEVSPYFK


Tests used:
syntrophin PDZ domain = target: T1, syntrophin PDZ domain; test: Fluorescence anisotropy PDZ-ligand binding, syntrophin, direct and competition; parameters: key to Syn Kd (μM), PDZ affinity (Kp): nb indicates no binding; settings: for Kd: read-out: Syn Kd (μM), PDZ affinity (Kp)
Procedure: (§1) Probes were generated by annealing an unlabeled top oligo to a labeled bottom oligo in a 2:1 ratio, while binding competitor oligos were generated using unlabeled top and bottom oligos mixed at equimolar ratios. For PDZ binding experiments, fluorescein-labeled peptide probe (ordered from Selleckhem) used for PDZ binding measurements contained the sequence VKESLV* (SEQ ID NO: 6), where the N-terminus was labeled with a FITC conjugate. Probe concentration was assessed by measuring Abs490. Competitor peptides were purified as MBP-ZF43-8 fusions (see e.g., FIG. 5A-FIG. 5B, FIG. 7A-FIG. 7B).
(§2) All assays were conducted in 20 mM Tris, pH 7.5, 100 mM […], 50 μM ZnCl2 buffer at 25° C. Proteins, probes, and competitor oligos were added to a final volume of 300 μL. Probes were used at 10 nM in all experiments. For complex assembly experiments (FIG. 1C), indicated concentrations of MBP-ZF43-8 harboring a VSKESLV* ligand (SEQ ID NO: 120) (see e.g., FIG. 5A-FIG. 5B, FIG. 7A-FIG. 7B) were titrated against 5 μM concentrations of clamp. Mixtures were allowed to equilibrate at 25° C. for 10 min in Costar black 96-well plates prior to reading. Fluorescence anisotropy (FA) measurements were made at 494 nm using a SpectraMax M5 (Molecular Devices) fluorescence plate reader. For all measurements, anisotropy (r) was calculated using the following equation, wherein I∥ and I⊥ are parallel and perpendicular fluorescence, respectively:
(§3) Fraction of bound probe was calculated using the following equation, wherein rbound and rfree are the anisotropy values for fully bound and fully unbound probe, respectively:
(§4) Each of these values was measured independently of binding curves with either a 100× excess or absence of ZF (in the case of ZF-oligo binding) or PDZ (in the case of PDZ-ligand binding). Q is the ratio of total fluorescence (measured at 454 nm) under rbound and rfree conditions. To obtain binding constants for ZF-probe and PDZ-probe interactions, binding data were fit to the following quadratic equation, wherein [P] is the total concentration of either ZF or PDZ, [probe] is the total concentration of the oligo or peptide probe, and Kd is the dissociation constant of the interaction:
(§5) Competition binding curves were calculated by fitting competition binding curves to the following cubic equation, wherein fb is fraction probe bound, [L*T] is the total probe concentration, [RT] and [R] are total and free concentrations of the ZF, respectively, while [LT] and [L] are total and free concentrations of competitor. Kd1 is the affinity for TF and probe, while Kd2 is the affinity between TF and competitor:
(§6) As a first step toward construction of a molecular assembly scheme amenable to modeling, a set of part variants was identified comprising a range of Kt and Kp values, and then in vitro binding experiments were conducted to directly measure their binding affinities (see e.g., FIG. 6, FIG. 7A, FIG. 7B). […] For each ZF, previously described R-to-A ZF backbone mutations were used as affinity variants (see e.g., Khalil et al., Cell. 150, 647-658 2012). DBM affinity series (DBM1, DBM2, etc.) for both ZFs by were also generated by systematically mutating nucleotides both in the core and directly flanking the core 9-bp recognition sequence (ZF 1: a[…]c (SEQ ID NO: 99); ZF2: a[…]c (SEQ ID NO: 102)). Similarly, PDZ-ligand affinities were measured for two domains (syntrophin ‘syn’ and erbin ‘erb’) and their respective partner ligands. For each pair, ligands of various affinities were obtained from published reports (S1, S2, . . .; E1, E2, . . . )12, 13 (see e.g., FIG. 7A, FIG. 7B). Altogether, this yielded a set of component interactions consisting of 15 ZF-DNA and 13 PDZ-ligand pairs with in vitro-measured values ranging from mid μM to low nM, permitting broad, tunable control of Kt and Kp.
(§7) PDZ-ligand binding constants were measured in vitro by fluorescence anisotropy. Recombinant proteins were purified as described herein. […]

erbin PDZ domain = target: T2, erbin PDZ domain (Homo sapiens, UniProt Q96RT1, V1340R); test: Fluorescence anisotropy PDZ-ligand competition binding, erbin; parameters: key to Erb Kd (μM), PDZ affinity (Kp): nb indicates no binding; settings: for Kd: read-out: Erb Kd (μM), PDZ affinity (Kp)
T2 construct: made in house; host or cells: E. coli BL-21 Rosetta (DE3)pLysS, pMAL-c5X vector
T2 sequence (Q96RT1 with tags, fused parts or gaps V1340R): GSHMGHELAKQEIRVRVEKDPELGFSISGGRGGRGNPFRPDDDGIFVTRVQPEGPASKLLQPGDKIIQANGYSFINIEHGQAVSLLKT
Procedure: as §1, §2, §3, §4, §5, §6, §7

[1] = tested on: DBM oligo probe (FITC labeled); test: In vitro complex assembly: synTF titration of DBM oligo probe with or without clamp (fluorescence anisotropy); type: binding
Source text: FIG. 1A-FIG. 1E is a series of graphs and schematics showing the design scheme for assembly-mediated regulatory control of synthetic gene circuits. (FIG. 1A) Nodes in cellular networks use one-to-one regulatory interactions to execute simple computation-al tasks (top); cooperative interactions within multivalent assemblies enable complex, non-linear signal processing (bottom). (FIG. 1B) Design of synthetic TF regulatory assemblies. Complexes are built from interaction domains (ZF and PDZ) and their respective binding partners (DBM and PDZ ligand). Clamp-mediated synTF complex-formation (TA, transcriptional activator domain drives coding sequence transcription). Interaction affinities (Kt and Kp) and the number of repeated complex units (nc) determine thermodynamics of assembly. (FIG. 1C) In vitro assembly of purified cooperative complex components. Fluorescence anisotropy for synTF titration of DBM oligo probe ([…]) and converted to fraction probe bound (Nb, synTFs with binding-deficient PDZ ligand mutants; nc, number of PDZ domains per clamp and DBMs probe). Points represent mean values for three measurements±SE. (FIG. 1D) Testing in vivo complex assembly in yeast using a synthetic gene circuit (GFP output). All genes are chromosomally-integrated (left; see e.g., Table 4). Small molecule-inducible expression systems (ncTET and ncZEV) control intracellular expression levels (see e.g., FIG. 8A, FIG. 8B) of synTF (induced by ATc, 2-500 ng/mL) and clamp (EST, 0.05-12.5 nM), respectively. Adjusting molecular features of assembly (Kt, Kp, nc) tunes overall circuit transfer function (right). (FIG. 1E) Parameterization of thermodynamic complex assembly model. Dose response data for circuit configurations with various Kt, Kp, nc values were fit to a thermodynamic model (see e.g., FIG. 10, FIG. 11); regression plot showing residual from fit are shown at the right. MAE, mean absolute error.
Thus, synTF binding cooperativity is enhanced by the clamp and scales in magnitude with complex size.
as §2, with “For complex assembly experiments (FIG. 1C), indicated concentrations of MBP-ZF43-8 harboring a VSKESLV* ligand (SEQ ID NO: 120) (see e.g., FIG. 5A-FIG. 5B, FIG. 7A-FIG. 7B) were titrated against 5 μM concentrations of clamp.” left out
Species used in the binding assay are described in FIG. 5A and FIG. 5B, and descriptions for protein purification and the binding assay are described elsewhere herein. […]

[2] = tested on: HEK293FT reporter cell line; test: Clamp assembly-mediated transcriptional activation, mCherry reporter by flow cytometry; type: cell-based; settings: transfected into HEK293FT reporter line, 4 tandem DBMs, pMinCMV
Source text: In the work in yeast, clamp-dependent assembly was initially based on the ability of a zinc finger-based synthetic transcription factor (synTF) and clamp to induce higher reporter activation when co-expressed. To test the possibility that assembly-mediated gene expression also works in mammalian cells, a similar approach was taken. Expression plasmids were generated for synTF (sequence descriptions in Example 7) and a 2-unit (nc=2) clamp (sequence description in Example 7), both driven by a strong UBC promoter (pUBC, Ubiquitin C promoter). A corresponding HEK293FT reporter cell line was generated by lentiviral transduction of a synTF-responsive reporter construct, composed of 4 tandem 20-bp DNA-binding motifs (DBMs) upstream of a minimal CMV promoter (pMinCMV) driving expression of an mCherry fluorescent protein.
Different combinations of the synTF and clamp expression plasmids were transfected into the HEK293FT reporter line, and mCherry reporter expression was assayed using flow cytometry (see e.g., FIG. 19).

Row | Molecule | Kd (syntrophin PDZ domain) | Erb Kd (μM), PDZ affinity (Kp) (erbin PDZ domain) | Kd (erbin PDZ domain) | further results
1 | VKEALV | 27.3 µM | nb | – | –
2 | WLKTWV | – | – | 0.33 µM | Syn Kd (μM), PDZ affinity (Kp) (syntrophin PDZ domain): nb
3 | IRWTIV | 0.49 µM | – | 1.73 µM | –
4 | IRETIV | 0.88 µM | – | 3.46 µM | –
5 | IRETII | 0.062 µM | nb | – | –
6 | VKEAAA | – | nb | – | Syn Kd (μM), PDZ affinity (Kp) (syntrophin PDZ domain): nb
7 | WLVTWV | – | – | 0.1 µM | Syn Kd (μM), PDZ affinity (Kp) (syntrophin PDZ domain): nb
8 | PVDSWV | 1.57 µM | – | 0.42 µM | –
9 | VKESLV | 1.97 µM | – | 5.71 µM | –
10 | HLETFF | 43.2 µM | nb | – | –
11 | IRETIL | 0.18 µM | nb | – | –
12 | synTF: MBP-ZF43-8 fusion harboring a VKESLV-type syntrophin PDZ ligand, titrated against DBM oligo probe (protein, left off: large carriers, MBP-ZF43-8 fusion harboring a VKESLV-type syntrophin PDZ ligand, titrated against DBM oligo probe) GEAPFQCRICMANFSRQDRLDRHTRTHTGEKPFQCRICMANFSQKEHLAGHLRTHTGEKPFQCRICMANFSRRDNLNRHLKTHLRGSGSGVKESLV | – | – | – | cooperativity (nH) ([1]; nc=2 probe, two-PDZ clamp added (2 μM)): 1.81; cooperativity (nH) ([1]; nc=2 probe, without clamp): 1.07; EC50 ([1]; nc=2 probe, without clamp, read-out: affinity of synTFs for the probe (EC50)): 210 nM; cooperativity (nH) ([1]; nc=3 probe and three-repeat clamp): 2.55
13 | clamp: SEQ ID NO: 144, 2-unit clamp of α-syntrophin PDZ domains with 3x FLAG tag and NLS (protein) MDYKDHDGDYKDHDIDYKDDDDKMAPKKKRKVVELQRRRVTVRKADAGGLGISIKGGRENKMPILISKIFKGLAADQTEALFVGDAILSVNGEDLSSATHDEAVQALKKTGKEVVLEVKYMKEVSPYFKGSGGSSGSGPGSSGGSGPGSGSSGGSGSGPGSGGSSGPGSETELVELQRRRVTVRKADAGGLGISIKGGRENKMPILISKIFKGLAADQTEALFVGDAILSVNGEDLSSATHDEAVQALKKTGKEVVLEVKYMKEVSPYFKG | – | – | – | mCherry reporter expression [2]: enhancement of reporter activation
